Source: US6685915B2, “Extended-linear polymeric contrast agents, and synthesizing methods, for medical imaging” (General Electric Company, priority 1999, dated 2004)

Experiment: blood circulation time
Assay type: in vivo
Excerpt: Furthermore, the blood circulation times can be adjusted by varying the polymer length.

Molecule O=C([O-])CN(CCN(CC(=O)[O-])CC(=O)O)CCN(CC(=O)[O-])CC(=O)O.[Gd+3] [Gd-DTPA, gadolinuim- diethylentriaminepentaaceticacid] has a circulation time constant of 15 min.
